Experiment in the first data set: not given
As for `CCOc1ccc(NC(=O)OC(C)C(Cl)(Cl)Cl)cc1OCC` (stereo unspecified), the log partition coefficient (logP) is 3.96.

As for `C#CCCOC(=O)Nc1ccc(OCC)c(OCC)c1`, the log partition coefficient (logP) was 2.54.

In turn, `C=CC(CC)OC(=O)Nc1ccc(OCC)c(OCC)c1` (stereo unspecified) returned a logP of 3.42.

As for `CCOc1ccc(NC(=O)OCCCl)cc1OCC`, the lipophilicity (logP) is 2.62.

`CCOc1ccc(NC(=O)OCCF)cc1OCC` showed a logP of 2.27.

Take `CCOc1ccc(NC(=O)OC(C)(C)C)cc1OCC`: the logP amounted to 3.17.

Molecule `C#CCC(C)OC(=O)Nc1ccc(OCC)c(OCC)c1` (stereo unspecified) displayed a log partition coefficient (logP) of 2.86.

In turn, `CCOc1ccc(NC(=O)OCCBr)cc1OCC` displayed a logP of 2.78. The logP values of the last two molecules are within 0.2 log units of each other.

In the case of `CCOc1ccc(NC(=O)OC(C)CF)cc1OCC` (stereo unspecified), the log partition coefficient (logP) was found to be 2.59. This logP and that of the molecule before are within 0.2 log units of each other.

`C=CCC(C)OC(=O)Nc1ccc(OCC)c(OCC)c1` (stereo unspecified) gave a logP of 3.37.

In turn, `CCOc1ccc(NC(=O)OC(C)c2ccccc2)cc1OCC` (stereo unspecified) gave a lipophilicity (logP) of 3.56. This logP and that of the molecule before are within 0.2 log units of each other.

`CCCCCCC(C)OC(=O)Nc1ccc(OCC)c(OCC)c1` (stereo unspecified) registered a logP of 5.06.

Molecule `CCOc1ccc(NC(=O)OC(C)CCl)cc1OCC` (stereo unspecified) had a logP of 2.97.

With `CCOc1ccc(NC(=O)OC(C)COC)cc1OCC` (stereo unspecified), the logP stood at 2.56.

For `C#CC(CC)OC(=O)Nc1ccc(OCC)c(OCC)c1` (stereo unspecified), the lipophilicity (logP) stood at 3.07.

Another data set in a line: method code SF-AS, from DOI: 10.1584/jpestics.13.587.
Turning to `C#CC(C)OC(=O)Nc1ccc(OCC)c(OCC)c1` (stereo unspecified), the logP was 2.68.

The values above are taken from the SangsterLogP compilation.
